Experiment [1] has as its system p-Akt/Akt. Briefly: DSV-induced Akt phosphorylation, Western blot in RAW cells. Format: cell-based, murine. As to conditions: 200 μM, 3 h before DSV 4 h; DSV alone 3.18±0.30. The procedure:
(§1) RAW 264.7 murine macrophage-like cells were grown in DMEM+10% FBS without any use of antibiotics or antimycotics. Cells were grown at 37° C. in a humidified incubator with 5% CO2. Prior to the day of infection, 8×10^5 cells were plated in a six-well plate and infected with DSV at multiplicity of infection 20 (MOI 20) for various times. For drug treatments, cells were incubated with LY294002 at 10 μM or 50 μM for one hour followed by DSV infection for 30 minutes or four hours. For TL2-C29 treatment, cells were incubated with the inhibitor at 200 μM for three hours followed by infection with DSV for four hours.
(§2) Cells were lysed in Lysis buffer containing protease and phosphatase inhibitors (Thermo Fisher Scientific, Inc., Waltham, MA) for 20 minutes at 4° C. Lysates were centrifuged at 12,000 rpm for five mins at 4° C. and supernatants were collected. Protein concentration in the supernatants was determined with Bradford reagent (Bio-Rad Laboratories, Inc., Hercules, CA). 50 μg of protein samples were run on SDS-PAGE (4-20% tris-glycine) and transferred to nitrocellulose membranes. Membranes were blocked in 5% milk in PBS-T (0.1% Tween 20) for 30 minutes followed by overnight incubation in primary antibodies in cold room. All antibodies except iNOS were purchased from Cell Signaling Technology (Danvers, MA): Actin (4970), p-AktS473(4060), p-Akt T308(13038), Akt (9272), p-P70S6K (9205), P70S6K (2708, TNF-α (19948). iNOS antibody was purchased from Abcam (Cambridge United Kingdom). Antibodies were diluted as recommended by the manufacturer. The following day, blots were washed with PBS-T and incubated with secondary antibodies (Cell Signaling Technology, Danvers, MA) at room temperature for one hour (dilution of 1:2000) and developed using enhanced chemiluminescence HRP signal (Thermo Fisher Scientific, Inc., Waltham, MA).
(§3) All graphs were generated using PRISM 9.4.1 GraphPad Software Inc., San Diego, CA). Data is plotted as Mean±SEM relative to control. Each experiment was conducted at least three independent times. […]

Experiment [2] relates to secreted TNF-α. Briefly: DSV-induced secreted TNF-α, Western blot of RAW cell culture supernatant. In kind it is cell-based, murine. The note with it: 200 μM, 3 h before DSV 4 h; DSV alone 38.09±5.188. The procedure:
FIG. 12. LY294002 inhibits DSV-induced activation of PI3K/Akt/TNF pathway. (A) RAW cells were treated with LY at either 10 μM or 50 μM for one hour before infection with DSV for four hours. Cells were lysed and protein lysate was prepared. Fifty μg of protein lysate was separated on SDS-PAGE and analyzed for p-Akt, Akt, TNF, iNOS, p-p70S6K, and total p70S6K by Western blotting. Actin was used as a loading control. (B) Quantification of p-Akt-Akt Western blot. (C) Quantification of p-P70/P70 Western blot. (D) Quantification of TNF-α/actin Western blot. (E) Post-infection, RAW cell culture supernatant was collected and proteins were precipitated using ethanol precipitation. Proteins were resuspended in PBS and 50 μg of proteins were loaded on SDS-PAGE and secreted TNF-α was detected using TNF-α antibody. Actin was used as a loading control.
as §1
Cells were lysed in Lysis buffer containing protease and phosphatase inhibitors (Thermo Fisher Scientific, Inc., Waltham, MA) for 20 minutes at 4° C. Lysates were centrifuged at 12,000 rpm for five mins at 4° C. and supernatants were collected. Protein concentration in the supernatants was determined with Bradford reagent (Bio-Rad Laboratories, Inc., Hercules, CA). 50 μg of protein samples were run on SDS-PAGE (4-20% tris-glycine) and transferred to nitrocellulose membranes. Membranes were blocked in 5% milk in PBS-T (0.1% Tween 20) for 30 minutes followed by overnight incubation in primary antibodies in cold room. […]

Experiment [3] relates to iNOS. Briefly: DSV-induced iNOS expression, Western blot in RAW cells. Format: cell-based, murine. The note with it: 200 μM, 3 h before DSV 4 h; DSV alone 30.25±6.82. The procedure: as §1, §2, §3
Experiment [4] has as its system TNF-α. Briefly: DSV-induced cellular TNF-α expression, Western blot in RAW cells. In kind it is cell-based, murine. As to conditions: 200 μM, 3 h before DSV 4 h; DSV alone 24.67±2.51. The procedure: as §1, §2, §3
In experiment [5] the test system is Snail. The experiment in a line: DSV-induced Snail protein expression by Western blot. In kind it is cell-based, Human. As to conditions: 100 nM, 2 h before DSV MOI 20 for 24 h; DSV alone 7.14±0.73. On the procedure: FIG. 16. Rapamycin reduces DSV-induced Snail protein expression. Polarized Caco-2 cells were treated with 100 nM rapamycin for two hours, followed by DSV infection (MOI 20) for 24 hours. Cells were harvested and lysed. (A) Protein lysate was analyzed for Snail expression by Western blotting. (B) Quantitation of Snail expression from Western blot in (A). DSV: 7.14±0.73; DSV+Rapamycin: 3.10±0.74, **p<0.01.
Human colonic epithelial cells Caco-2 were purchased from the American Type Culture Collection (ATCC, Manassas, VA). Cells were grown in DMEM+20% FBS+penicillin and streptomycin (Thermo Fisher Scientific, Inc., Waltham, MA). Cells were grown at 37° C. in a humidified incubator with 5% CO2. To allow polarization and differentiation, cells were seeded at a density of 5×10^3 cells/well in 12-well 0.4 μm trans-well inserts for three weeks. Twenty-four hours before infection, growth medium was replaced with colorless medium (DMEM+20^0/o FBS) without antibiotics. […]
Cells were lysed in lysis buffer (Thermo Fisher Scientific, Inc., Waltham, MA; catalog #87787) containing protease and phosphatase inhibitors (Thermo Fisher Scientific, Inc., Waltham, MA; catalog #1861281) for 20 minutes at 4° C. with shaking. […] Protein concentration in the supernatants was determined with Bradford reagent (Bio-Rad Laboratories, Inc., Hercules, CA). […]

Experiment [6] relates to PI3K/Akt pathway. The experiment in a line: DSV-induced PI3K/Akt signaling with receptor antagonists. The note with it: pretreatment of cells before DSV. In kind it is cell-based, murine. The procedure: PI3k/Akt pathway is activated downstream of receptors such as RTKs and G-protein coupled receptors and also by TLRs activation which is often observed in the case of infections with various bacteria. Thus, cells were treated with different TLR antagonists to check for the involvement of TLR 2, TLR 4, or TLR 5 in DSV-mediated activation of PI3K/Akt pathway. […] DSV-induced phosphorylation of AKT was inhibited by C29 (DSV:3.18±0.30; DSV+C29: 1.58±0.29, p<0.05, FIG. 14, FIG. 15A). […] PI3K/Akt is classically activated by a vast number of stimuli through receptor tyrosine kinases (RTK). Thus, tryphostin AS1478, a common tyrosine kinase inhibitor, was used as an antagonist to EGFR signaling to test whether DSV-induced PI3k/Akt/TNF/iNOS pathway was dependent on RTK-mediated signaling.

Experiment [7] has as its system sulfate reducing bacteria. The note with it: batch culture; cited from earlier work.

With `COc1cccc(C=Nc2cccc(C(=O)O)c2C)c1O` [C29], the “p-Akt/Akt, normalized to control” value in experiment [1] stood at 1.58±0.29. The “secreted TNF-α, normalized to control” value in experiment [2] is reported as 1.103±0.03408. Besides, in experiment [3], the “iNOS protein expression, normalized to control” value turned out to be 2.32±1.48. Moreover, the “cellular TNF-α protein, normalized to control” value in experiment [4] stood at 8.57±2.81.

For the compound `CO[C@H]1C[C@@H]2CC[C@@H](C)[C@@](O)(O2)C(=O)C(=O)N2CCCC[C@H]2C(=O)O[C@H]([C@H](C)C[C@@H]2CC[C@@H](O)[C@H](OC)C2)CC(=O)[C@H](C)/C=C(\C)[C@@H](O)[C@@H](OC)C(=O)[C@H](C)C[C@H](C)/C=C/C=C/C=C/1C` [Rapamycin, rapamycin], the “Snail expression from Western blot” value in experiment [5] amounted to 3.10±0.74. For the compound `c1ccc(Cn2c(Sc3ncnc4c3sc3ncccc34)nnc2-c2ccncc2)cc1` [TH1020], the “effect on DSV-induced PI3K/Akt signaling” value in experiment [6] is listed as “Neither TLR4 antagonist TLR-IN-C34 nor TLR5 antagonist TH1020 had any discernable effect”. The same measure, in the same setting: next, `CC(=O)N[C@H]1[C@@H](OC(C)C)O[C@H](COC(C)=O)[C@@H](OC(C)=O)[C@@H]1OC(C)=O` [TLR-IN-C34]: “Neither TLR4 antagonist TLR-IN-C34 nor TLR5 antagonist TH1020 had any discernable effect”. For the compound `[Mg+2].[O-][O-]` [magnesium peroxide (MgO2), magnesium peroxide], in experiment [7], the “number of sulfate reducing bacteria” value is “inhibited”, the “sulfate reducing rate (SRR)” value is “inhibited” and the sulfide concentration result is given as “inhibited”. As to `COc1cc2ncnc(Nc3cccc(Cl)c3)c2cc1OC` [tryphostin AS1478], in experiment [6], the “effect on DSV-induced PI3K/Akt signaling” value is “No inhibition”.

Source of the values: patent US20240207216A1, “COMPOSITIONS AND METHOD FOR TREATING GUT PERMEABILITY CAUSED BY HYDROGEN SULFIDE PRODUCING BACTERIA” (UNM RAINFOREST INNOVATIONS, priority 2022, published 2024).
